How the values were obtained:
human hepatoma G2 cells = experiment: Cytotoxicity assay (XTT colorimetric), Hep G2; assay type: cell-based; settings: Homo sapiens, HepG2; 48 h of drug exposure
rat glioma C6 cells = experiment: Cytotoxicity assay (XTT colorimetric), C6 cells; assay type: cell-based; settings: Rattus norvegicus, C6; 48 h of drug exposure
[1] = tested on: hepatitis B virus transfected hepatoma cell lines, HepG 2.2.15 cells; experiment: Cytotoxicity assay, 2.2.15 cells; assay type: cell-based, human; settings: Homo sapiens, HepG2.2.15; 48 h of drug exposure
[2] = tested on: transcriptional activity of hTERT; experiment: SEAP reporter assay of hTERT expression, PhTERT-SEAP (hTERT-BJ1); assay type: cell-based, human; settings: PhTERT-SEAP (hTERT-BJ1)
In short: (§1)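 Cells seeded, grown 24 h at 37° C, refed, then exposed to varying drug amounts for another 24 h. Collected media heated 65° C for 10 min to kill heat-labile phosphatases, mixed with equal SEAP buffer (2 M diethanolamine, 1 mM MgCl2, 20 mM […]) plus 12 mM final p-nitrophenyl phosphate; rate of A405 increase measured.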

[3] = tested on: transcriptional activity of hTERT; experiment: SEAP reporter assay of hTERT expression, PhTERT-SEAP (H1299); assay type: cell-based, human; settings: PhTERT-SEAP(hTERT-H1299)
In short: as §1

[4] = MTT relative viability, PhTERT-SEAP (H1299) cells; settings: human
Description: (§2) The tetrazolium reagent (MTT; 3-(4,5-di-methylthiazol)-2,5-diphenyl tetrazolium bromide, USB) was designed to yield a colored formazan upon metabolic reduction by viable cells. Approximately […] cells were plated onto each well of a 96-well plate and incubated in 5% CO2 at 37° C. for 24 h. To assess the in vitro cytotoxicity, each compound was dissolved in DMSO and prepared immediately before the experiments and was diluted into the complete medium before addition to cell cultures. Test compounds were then added to the culture medium for designated various concentrations. After 48 h, an amount of 25 μL of MTT was added to each well, and the samples were incubated at 37° C. for 4 h. A 100 μL solution of lysis buffer containing 20% SDS and 50% N,N-dimethylformamide was added to each well and incubated at 37° C. for another 16 h. The absorbency at 550 nm was measured using an ELISA reader.
(§3) Non small lung cancer cells H1299 (telomerase positive) were grown in RPMI 1640 media supplemented with 10% fetal bovine serum, 100 units/mL penicillin and 100 mg/mL streptomycin in a humidified atmosphere with 5% CO2 at 37° C. The hTERT immortalized hTERT-BJ1 (BD Biosciences Clontech)^39 were grown in DMEM media supplemented with 10% fetal calf serum, 100 units/mL penicillin and 100 mg/mL streptomycin, 1 mM sodium pyruvate, and 4 mM I-arginine in a humidified atmosphere with 5% CO2 at 37° C. Culture media were changed every 3 days. […] The stable clones derived from H1299 or hTERT-BJ1 were cultured using conditions that are similar to their parental cells.

[5] = MTT relative viability, PhTERT-SEAP (hTERT-BJ1) cells; settings: human; for viability at 48 h, 218 µM / viability at 48 h, 205 µM: hTERT-BJ1 cells stably transfected with PhTERT-SEAP reporter
Description: as §2, §3

[6] = hTERT-BJ1 cells, stable PhTERT-SEAP reporter clone
[7] = Homo sapiens, 2.1 μM, read-out: Relative SEAP activity (%)
[8] = Homo sapiens, 21 μM, read-out: Relative SEAP activity (%)
[9] = Homo sapiens, 218 μM, read-out: Relative SEAP activity (%)
[10] = Homo sapiens, NCI-H1299, 2.1 μM, read-out: Relative SEAP activity (%)
[11] = Homo sapiens, NCI-H1299, 21 μM, read-out: Relative SEAP activity (%)
[12] = Homo sapiens, NCI-H1299, 218 μM, read-out: Relative SEAP activity (%)
[13] = Homo sapiens, 2.0 μM, read-out: Relative SEAP activity (%)
[14] = Homo sapiens, 20 μM, read-out: Relative SEAP activity (%)
[15] = Homo sapiens, 205 μM, read-out: Relative SEAP activity (%)
[16] = Homo sapiens, NCI-H1299, 2.0 μM, read-out: Relative SEAP activity (%)
[17] = Homo sapiens, NCI-H1299, 20 μM, read-out: Relative SEAP activity (%)
[18] = Homo sapiens, NCI-H1299, 205 μM, read-out: Relative SEAP activity (%)

For `CC(Cl)C(=O)Nc1ccc(NC(=O)C(C)Cl)c2c1C(=O)c1ccccc1C2=O` (stereo not drawn) [VI9, 1,4-Bis(2-chloropropionamido)-9,10-anthracenedione], the IC50 (human hepatoma G2 cells) was > 20 µM, the IC50 (rat glioma C6 cells) was > 20 µM and the IC50 [1] was > 20 µM. It also gave an SEAP/vibility ([2]; 2.3 μM) of 0.97, an SEAP/vibility ([2]; 23 μM) of 1.49 and an SEAP/vibility ([2]; 238 μM) of 1.68. For the same compound, the activity at 2.3 µM ([2]; Homo sapiens, 2.3 μM, read-out: Relative SEAP activity (%)) was 91 ± 10.8%, the activity at 23 µM ([2]; Homo sapiens, 23 μM, read-out: Relative SEAP activity (%)) was 101 ± 8.4% and the activity at 238 µM ([2]; Homo sapiens, 238 μM, read-out: Relative SEAP activity (%)) was 81 ± 8.5%. The SEAP/vibility ([3]; 2.3 μM) was 0.96, the SEAP/vibility ([3]; 23 μM) was 1.40 and the SEAP/vibility ([3]; 238 μM) was 7.82. The activity at 2.3 µM ([3]; Homo sapiens, NCI-H1299, 2.3 μM, read-out: Relative SEAP activity (%)) was 106 ± 5.5%, the activity at 23 µM ([3]; Homo sapiens, NCI-H1299, 23 μM, read-out: Relative SEAP activity (%)) was 109 ± 1% and the activity at 238 µM ([3]; Homo sapiens, NCI-H1299, 238 μM, read-out: Relative SEAP activity (%)) was 85 ± 5.3%. For the same compound, the melting point was 233 to 235 °C, the viability at 48 h, 2.3 µM [4] was 111 ± 5.5% and the viability at 48 h, 23 µM [4] was 77 ± 3.4%. For the same compound, the viability at 48 h, 238 µM [4] was 11 ± 1.4%, the viability at 48 h, 2.3 µM [5, 6] was 94 ± 10.4% and the viability at 48 h, 23 µM [5, 6] was 68 ± 8.2%. It also gave a viability at 48 h, 238 µM [5, 6] of 48 ± 2.3%.

With `O=C1c2ccccc2C(=O)c2c(NC(=O)C3CCCCC3)ccc(NC(=O)C3CCCCC3)c21` [VI17, 1,4-Bis(cyclohexaneamido)-9,10-anthracenedione] the IC50 (human hepatoma G2 cells) was > 20 µM, the IC50 (rat glioma C6 cells) was > 20 µM and the IC50 [1] was > 20 µM. The SEAP/vibility ([2]; 2.1 μM) was 0.64, the SEAP/vibility ([2]; 21 μM) was 0.44 and the SEAP/vibility ([2]; 218 μM) was 0.68. The activity at 2.1 µM [2, 7] was 65 ± 16%, the activity at 21 µM [2, 8] was 42 ± 24.3% and the activity at 218 µM [2, 9] was 56 ± 16.3%. The SEAP/vibility ([3]; 2.1 μM) was 1.00, the SEAP/vibility ([3]; 21 μM) was 1.05 and the SEAP/vibility ([3]; 218 μM) was 1.38. For the same compound, the activity at 2.1 µM [3, 10] was 104 ± 1.8%, the activity at 21 µM [3, 11] was 100 ± 6.2% and the activity at 218 µM [3, 12] was 93 ± 2.5%. The melting point was 309 to 310 °C, the viability at 48 h, 2.1 µM [4] was 104 ± 6.4% and the viability at 48 h, 21 µM [4] was 96 ± 5.8%. It also gave a viability at 48 h, 218 µM [4] of 67 ± 1.5%, a viability at 48 h, 218 µM [5] of 83 ± 4.2% and a viability at 48 h, 2.1 µM [5, 6] of 102 ± 3%. It also gave a viability at 48 h, 21 µM [5, 6] of 97 ± 2.4%.

For `O=C(CCC1CCCC1)Nc1ccc(NC(=O)CCC2CCCC2)c2c1C(=O)c1ccccc1C2=O` [VI19, 1,4-Bis(3-cyclopentanepropionamido)-9,10-anthracenedione], the IC50 (human hepatoma G2 cells) was > 20 µM, the IC50 (rat glioma C6 cells) was > 20 µM and the IC50 [1] was > 20 µM. The SEAP/vibility ([2]; 2.0 μM) was 0.84, the SEAP/vibility ([2]; 20 μM) was 0.87 and the SEAP/vibility ([2]; 205 μM) was 0.87. It also gave an activity at 2 µM [2, 13] of 90 ± 9.2%, an activity at 20 µM [2, 14] of 87 ± 5.5% and an activity at 205 µM [2, 15] of 87 ± 8%. For the same compound, the SEAP/vibility ([3]; 2.0 μM) was 1.06, the SEAP/vibility ([3]; 20 μM) was 1.09 and the SEAP/vibility ([3]; 205 μM) was 1.15. The activity at 2 µM [3, 16] was 111 ± 9.4%, the activity at 20 µM [3, 17] was 116 ± 8% and the activity at 205 µM [3, 18] was 109 ± 9.2%. The melting point was 166 to 167 °C, the viability at 48 h, 2 µM [4] was 105 ± 2.1% and the viability at 48 h, 20 µM [4] was 106 ± 4.7%. For the same compound, the viability at 48 h, 205 µM [4] was 95 ± 1.3%, the viability at 48 h, 205 µM [5] was 100 ± 5.8% and the viability at 48 h, 2 µM [5, 6] was 107 ± 3.6%. It also gave a viability at 48 h, 20 µM [5, 6] of 101 ± 4.7%.

For `O=C(Nc1ccc(NC(=O)c2cccs2)c2c1C(=O)c1ccccc1C2=O)c1cccs1` [VI22, 1,4-Bis(2-thiopheneamido)-9,10-anthracenedione], the IC50 (human hepatoma G2 cells) was > 20 µM, the IC50 (rat glioma C6 cells) was > 20 µM and the IC50 [1] was > 20 µM. The SEAP/vibility ([2]; 2.1 μM) was 0.80, the SEAP/vibility ([2]; 21 μM) was 0.93 and the SEAP/vibility ([2]; 218 μM) was 1.07. For the same compound, the activity at 2.1 µM [2, 7] was 94 ± 20.2%, the activity at 21 µM [2, 8] was 92 ± 17.4% and the activity at 218 µM [2, 9] was 90 ± 22.7%. It also gave an SEAP/vibility ([3]; 2.1 μM) of 0.93, an SEAP/vibility ([3]; 21 μM) of 0.98 and an SEAP/vibility ([3]; 218 μM) of 1.16. For the same compound, the activity at 2.1 µM [3, 10] was 100 ± 3.1%, the activity at 21 µM [3, 11] was 105 ± 5.9% and the activity at 218 µM [3, 12] was 97 ± 4.9%. The melting point was 321 to 322 °C, the viability at 48 h, 2.1 µM [4] was 108 ± 3.7% and the viability at 48 h, 21 µM [4] was 107 ± 8.5%. For the same compound, the viability at 48 h, 218 µM [4] was 84 ± 4.3%, the viability at 48 h, 218 µM [5] was 84 ± 6.9% and the viability at 48 h, 2.1 µM [5, 6] was 118 ± 10.6%. For the same compound, the viability at 48 h, 21 µM [5, 6] was 99 ± 8.2%.

With `O=C(Cc1cccs1)Nc1ccc(NC(=O)Cc2cccs2)c2c1C(=O)c1ccccc1C2=O` [VI25, 1,4-Bis(2-thiopheneacetamido)-9,10-anthracenedione] the IC50 (human hepatoma G2 cells) was > 20 µM, the IC50 (rat glioma C6 cells) was > 20 µM and the IC50 [1] was 15.5 µM. It also gave an SEAP/vibility ([2]; 2.0 μM) of 0.45, an SEAP/vibility ([2]; 20 μM) of 0.38 and an SEAP/vibility ([2]; 205 μM) of 0.19. The activity at 2 µM [2, 13] was 53 ± 17.4%, the activity at 20 µM [2, 14] was 40 ± 12.7% and the activity at 205 µM [2, 15] was 14 ± 24.1%. The SEAP/vibility ([3]; 2.0 μM) was 1.06, the SEAP/vibility ([3]; 20 μM) was 1.39 and the SEAP/vibility ([3]; 205 μM) was 2.47. For the same compound, the activity at 2 µM [3, 16] was 111 ± 3.7%, the activity at 20 µM [3, 17] was 115 ± 4.3% and the activity at 205 µM [3, 18] was 102 ± 5.5%. It also gave a melting point of 158 to 160 °C, a viability at 48 h, 2 µM [4] of 104 ± 8% and a viability at 48 h, 20 µM [4] of 83 ± 6.6%. The viability at 48 h, 205 µM [4] was 41 ± 4%, the viability at 48 h, 205 µM [5] was 76 ± 6.5% and the viability at 48 h, 2 µM [5, 6] was 116 ± 7.5%. For the same compound, the viability at 48 h, 20 µM [5, 6] was 105 ± 4.4%.

With `O=C(Cc1ccc(F)cc1)Nc1ccc(NC(=O)Cc2ccc(F)cc2)c2c1C(=O)c1ccccc1C2=O` [VI32, 1,4-Bis(4-fluorophenylacetamido)-9,10-anthracenedione] the IC50 (human hepatoma G2 cells) was > 20 µM, the IC50 (rat glioma C6 cells) was > 20 µM and the IC50 [1] was > 20 µM. The SEAP/vibility ([2]; 1.9 μM) was 0.84, the SEAP/vibility ([2]; 19 μM) was 1.02 and the SEAP/vibility ([2]; 195 μM) was 1.01. For the same compound, the activity at 1.9 µM ([2]; Homo sapiens, 1.9 μM, read-out: Relative SEAP activity (%)) was 90 ± 18.4%, the activity at 19 µM ([2]; Homo sapiens, 19 μM, read-out: Relative SEAP activity (%)) was 102 ± 20% and the activity at 195 µM ([2]; Homo sapiens, 195 μM, read-out: Relative SEAP activity (%)) was 97 ± 11.6%. The SEAP/vibility ([3]; 1.9 μM) was 1.00, the SEAP/vibility ([3]; 19 μM) was 1.03 and the SEAP/vibility ([3]; 195 μM) was 1.39. The activity at 1.9 µM ([3]; Homo sapiens, NCI-H1299, 1.9 μM, read-out: Relative SEAP activity (%)) was 109 ± 10.8%, the activity at 19 µM ([3]; Homo sapiens, NCI-H1299, 19 μM, read-out: Relative SEAP activity (%)) was 109 ± 5.8% and the activity at 195 µM ([3]; Homo sapiens, NCI-H1299, 195 μM, read-out: Relative SEAP activity (%)) was 109 ± 6.6%. The melting point was 228 to 230 °C, the viability at 48 h, 1.9 µM [4] was 108 ± 8.8% and the viability at 48 h, 19 µM [4] was 107 ± 7.5%. It also gave a viability at 48 h, 195 µM [4] of 78 ± 8%, a viability at 48 h, 1.9 µM [5, 6] of 107 ± 7.2% and a viability at 48 h, 19 µM [5, 6] of 100 ± 6.3%. For the same compound, the viability at 48 h, 195 µM [5, 6] was 96 ± 4.1%.
